Tests used:
[1] = tested on: TNF-α signaling in L929 cells; test: Inhibition of TNF-α signaling in L929 cells (western blot); format: cell-based, murine; conditions: 2 h pretreatment, TNF-α 20 ng/mL
Description: The effect of compound I-9 on TNF-α signaling was examined in L929 cells (American Type Culture Collection, Manassas, Va.). Cells were cultured in RPMI (Invitrogen) containing 5% fetal bovine serum. Cells (1×10^6/well) were cultured in 6-well plates for 12 h, treated with or without small molecule for 2 h, and then stimulated with TNF-α at 20 ng/mL for the indicated periods. Cells were then washed with ice-cold phosphate-buffered saline and lysed with lysis buffer. Cell lysates ([…]) were separated by 12% SDS-PAGE, electroblotted onto nitrocellulose membrane (Osmonics, Westborough, Mass.), and probed with anti-phospho-IκBα, anti-IκBα, anti-phospho-p38, anti-p38, and anti-β-actin antibodies (Cell Signaling Technology, Inc., Beverly, Mass.) and developed using an enhanced chemiluminescence (ECL) system (Amersham Biosciences, Piscataway, N.J.).

[2] = target: T1, mutant TNF-R1 (Homo sapiens, UniProt P19438, F141E/Q111E); test: Isothermal titration calorimetry, binding to mutant TNF-R1 (82E, 112E); conditions: ITC, TNF-R1 mutated to 82E and 112E
T1 construct: The ectodomain of wild type TNF receptor 1 was obtained by PCR from pKP13; made in house
T1 sequence (P19438 30-211 Q111E/F141E limits assumed): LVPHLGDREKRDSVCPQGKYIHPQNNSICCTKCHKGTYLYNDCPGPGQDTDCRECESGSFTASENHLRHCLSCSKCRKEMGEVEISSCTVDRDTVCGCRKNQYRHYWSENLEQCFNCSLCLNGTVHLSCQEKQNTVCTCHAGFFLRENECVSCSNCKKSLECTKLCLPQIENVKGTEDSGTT
Text: The ectodomain of wild type TNF receptor 1 was obtained by PCR from pKP13 (as described in Beutler et al., Annu. Rev. Biochem. 57, 505-518 (1988)) with 5′ primer AAAAAACATATGTACCCCTCAGGGGTTATTGG (SEQ ID NO:2) and 3′ primer CCGCTCGAGTCAATGATGATG ATGATG ATGTGTGGTGCCTGAGTCCTCAG, (SEQ ID NO:3) and constructed into PET21 (Novagen, San Diego, Calif.) between Nde1 and XhoT, verified by sequencing. Mutant TNF receptor 1 was obtained from site-directed mutagenesis by using a QuikChange mutagenesis kit (Stratagene, La Jolla, Calif.). The plasmid was then transformed into Origami™ (DE3) (Novagen, San Diego, Calif.). The cells were grown until A600 was 0.6 and were induced by addition of 0.2 mM of IPTG. The cells were then induced for 3 h and harvested by centrifugation at 3500 rpm for 10 min. The wild type and mutant TNF-R1 were all expressed in the inclusion bodies of the cells and were extracted and refolded as described in Lin et al., Biotechniques 11, 748 (December 1991). […]
The binding thermodynamics of inhibitors to the TNF receptor was measured by isothermal titration calorimetry (ITC) using a high-precision VP-ITC titration calorimetric system (MicroCal Inc, Northampton, Mass.). […] Data were analyzed and fitted using the data analysis software supplied by MicroCal (Origin version 5.0).

## CC(=O)Oc1ccc(C(C)(c2ccc(OC(C)=O)cc2)c2ccc(OC(C)=O)cc2)cc1 [Compound I-9, 1,1,1-Tris-(4-acetoxyphenyl)ethane]
[1]
  production of phospho-IκBα following TNF-α treatment: reduced
  production of phospho-p38 following TNF-α treatment: reduced
[2]
  binding to the mutant receptor: no longer bound

From patent US9096607B2, “Tumor necrosis factor inhibitors” (THE TRUSTEES OF THE UNIVERSITY OF PENNSYLVANIA, priority 2005, dated 2015)
